Experimental data: paper PMC6874683, “Pyrrothiogatain acts as an inhibitor of GATA family proteins and inhibits Th2 cell differentiation in vitro” (Scientific Reports, 2019)
Values joined by “and” are separate entries in the source; they are usually repeats but may differ in a detail not shown here. Equal entries are not always repeated.

Tests used:
GATA5 = biological target: T1, GATA5 (Homo sapiens, UniProt Q9BWX5); experiment: AlphaScreen DNA-binding assay, GATA5; settings: pyrrothiogatain 0 to 200 µM
T1 construct: we tried to synthesize their full-length proteins using the cell-free system; made in house; host or cells: wheat cell-free protein synthesis system (WEPRO1240 kit)
Protocol: (§1) For the protein-DNA binding assay on a 384-well AlphaPlate (Perkin Elmer), 10 μL of bait protein mixture containing 1 µL FLAG-tagged protein in AlphaScreen Buffer (100 mM Tris-HCl (pH 8.0), 150 mM NaCl, 0.1% Tween 20, and 1 mg/mL BSA) and 5 µL biotinylated oligonucleotide (0–10 µM final concentration) in AlphaScreen Buffer were dispended into the AlphaPlate. Then, the plate was incubated at 26 °C for 1 h. After incubation, 10 μL of the detection mixture containing 0.4 µg/mL Anti-DYKDDDDK antibody (1E6, Wako), 0.1 μL streptavidin-conjugated AlphaScreen donor beads, and 0.1 μL protein A-conjugated AlphaScreen acceptor beads in AlphaScreen Buffer was mixed and incubated at 26 °C for 1 h, and then, the AlphaScreen signal was detected using an EnVision device with the AlphaScreen signal detection program (PerkinElmer).
(§2) For the AlphaScreen-based chemical library screening, we used a diverse set of 9,600 synthesized chemicals established by the Drug Discovery Initiative (The University of Tokyo, Tokyo, Japan). All chemical compounds (10 mM) were dissolved in DMSO, and were pre-dispensed into a 384-well Alphaplate (250 nL/well). […] The AlphaScreen signal was detected using an EnVision device with the AlphaScreen signal detection program (PerkinElmer). […]

RelA = biological target: T2, RelA (Homo sapiens, UniProt Q04206); experiment: AlphaScreen binding assay of RelA and its target DNA (control); settings: second screen, 0 to 10 µM
T2 construct: FLAG; made in house; host or cells: wheat cell-free protein synthesis system (inferred from the general methods)
From the text: Figure 2 Identification of a GATA3 inhibitor using the wheat cell-free drug screening system. (A) A flow chart of the high-throughput screening to identify the 3-(2,5-dimethyl-1H-pyrrol-1-yl)thiophene-2-carboxylic acid that inhibits the DNA-binding activity of GATA3. The 3-(2,5-dimethyl-1H-pyrrol-1-yl)thiophene-2-carboxylic acid was named pyrrothiogatain (pyrrole and thiofuran containing GATA3 inhibitor). (B) The results of the first screen using 9,600 compounds. In the assay, each chemical compound was used at a final concentration of 10 µM. (C) The results of the second screening that show the inhibition rate of pyrrothiogatain. The inhibition assay of GATA3 DNA-binding activity was performed in the presence of various concentrations of pyrrothiogatain (0 to 10 µM). Biotinylated FLAG-peptide was used as a control to measure the interference of compounds in the AlphaScreen assay. In addition, a binding assay of RelA and its target DNA was used as control for GATA3. (D) Electrophoretic mobility shift assay (EMSA) of GATA3 with its consensus motif containing oligonucleotide in the presence of various concentrations of pyrrothiogatain (0 to 100 µM). GATA3 consensus oligonucleotide labelled with ^32P was detected by autoradiography. […] In (B,D,E), all data are expressed as individual points of three independent experiments with error bars indicating standard deviation. […]

GATA4 = biological target: T3, GATA4 (Homo sapiens, UniProt P43694); experiment: AlphaScreen DNA-binding assay, GATA4; settings: pyrrothiogatain 0 to 200 µM
T3 construct: we tried to synthesize their full-length proteins using the cell-free system; made in house; host or cells: wheat cell-free protein synthesis system (WEPRO1240 kit)
Protocol: as §1, §2

[1] = tested on: GATA3-dependent IL-5 promoter activation; experiment: IL-5 promoter luciferase reporter assay in HEK293T cells; assay type: cell-based; settings: PMA 30 ng/mL, 0 to 30 µM
Protocol: The IL-5 promoter activity was determined as previously described[22],[23]. In brief, HEK293T cells were co-transfected with a firefly luciferase reporter (pGL3-IL-5 promoter), a renilla luciferase plasmid, and an expression vector (pcDNA3.1) using TransIT-LTI Regent (Cat#MIR2304, Mirus). Six hours after transfection, cells were treated with pyrrothiogatain (0 to 30 µM) and PMA (30 ng/mL) for 18 hours. The luciferase activity was measured using a Dual-Luciferase Reporter Assay System (cat#E1910, Promega).

GATA3 = biological target: T4, GATA3 (Homo sapiens, UniProt P23771); experiment: AlphaScreen DNA-binding assay, GATA3 with GATA consensus DNA
T4 construct: we synthesized the recombinant full-length GATA3 protein with an N-terminal FLAG tag using the wheat cell-free system; made in house; host or cells: wheat cell-free protein synthesis system (WEPRO1240 kit)
Protocol: as §1, §2

T4 sequence (P23771 whole entry, species assumed): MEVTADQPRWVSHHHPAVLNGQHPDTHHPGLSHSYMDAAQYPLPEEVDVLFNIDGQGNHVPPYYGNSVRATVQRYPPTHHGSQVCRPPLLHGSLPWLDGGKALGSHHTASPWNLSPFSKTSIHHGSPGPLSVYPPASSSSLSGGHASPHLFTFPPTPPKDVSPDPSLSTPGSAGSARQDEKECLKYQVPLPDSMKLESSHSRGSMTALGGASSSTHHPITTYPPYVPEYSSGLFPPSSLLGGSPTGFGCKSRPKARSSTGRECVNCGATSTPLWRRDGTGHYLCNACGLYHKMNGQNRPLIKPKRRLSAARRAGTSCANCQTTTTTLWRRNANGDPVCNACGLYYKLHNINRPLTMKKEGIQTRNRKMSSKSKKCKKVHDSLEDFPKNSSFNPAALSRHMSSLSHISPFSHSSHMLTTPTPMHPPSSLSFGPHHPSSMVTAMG
T1 sequence (Q9BWX5 whole entry, species assumed): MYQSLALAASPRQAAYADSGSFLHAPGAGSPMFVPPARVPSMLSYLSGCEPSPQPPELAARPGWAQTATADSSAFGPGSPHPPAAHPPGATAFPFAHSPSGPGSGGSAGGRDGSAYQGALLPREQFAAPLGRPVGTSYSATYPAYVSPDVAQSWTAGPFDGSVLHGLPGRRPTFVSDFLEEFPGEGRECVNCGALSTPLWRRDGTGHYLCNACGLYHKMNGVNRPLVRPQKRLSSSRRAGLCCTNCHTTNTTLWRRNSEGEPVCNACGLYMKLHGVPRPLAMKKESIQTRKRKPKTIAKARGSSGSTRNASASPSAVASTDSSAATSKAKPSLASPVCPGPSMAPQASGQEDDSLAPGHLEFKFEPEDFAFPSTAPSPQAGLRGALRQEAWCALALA
T3 sequence (P43694 whole entry, species assumed): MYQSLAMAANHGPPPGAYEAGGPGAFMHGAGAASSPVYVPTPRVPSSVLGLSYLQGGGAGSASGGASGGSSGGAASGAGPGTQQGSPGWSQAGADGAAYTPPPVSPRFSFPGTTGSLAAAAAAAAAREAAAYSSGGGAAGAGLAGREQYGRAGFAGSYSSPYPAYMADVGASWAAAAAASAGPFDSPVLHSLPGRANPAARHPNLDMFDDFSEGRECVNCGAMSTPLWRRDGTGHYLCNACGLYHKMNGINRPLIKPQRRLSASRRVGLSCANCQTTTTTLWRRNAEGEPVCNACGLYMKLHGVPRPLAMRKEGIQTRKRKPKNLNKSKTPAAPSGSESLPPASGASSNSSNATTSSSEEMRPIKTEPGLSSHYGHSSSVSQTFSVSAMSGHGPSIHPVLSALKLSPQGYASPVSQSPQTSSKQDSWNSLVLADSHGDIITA
T2 sequence (Q04206 whole entry, species assumed): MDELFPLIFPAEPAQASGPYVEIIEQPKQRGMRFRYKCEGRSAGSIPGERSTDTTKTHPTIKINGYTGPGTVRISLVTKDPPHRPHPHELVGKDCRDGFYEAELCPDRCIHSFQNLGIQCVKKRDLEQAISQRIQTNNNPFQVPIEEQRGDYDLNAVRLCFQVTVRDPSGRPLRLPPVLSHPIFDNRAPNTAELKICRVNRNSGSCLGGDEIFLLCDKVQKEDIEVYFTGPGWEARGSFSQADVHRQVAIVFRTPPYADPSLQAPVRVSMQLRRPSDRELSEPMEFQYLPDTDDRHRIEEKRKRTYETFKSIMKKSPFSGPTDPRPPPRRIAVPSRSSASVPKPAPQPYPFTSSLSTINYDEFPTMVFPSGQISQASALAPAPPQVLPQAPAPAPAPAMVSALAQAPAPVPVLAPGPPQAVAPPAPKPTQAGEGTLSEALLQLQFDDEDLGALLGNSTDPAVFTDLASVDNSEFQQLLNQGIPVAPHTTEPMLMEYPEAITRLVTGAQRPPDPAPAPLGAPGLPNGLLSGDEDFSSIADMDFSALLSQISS

Cc1ccc(C)n1-c1ccsc1C(=O)O [Pyrrothiogatain, 3-(2,5-dimethyl-1H-pyrrol-1-yl)thiophene-2-carboxylic acid] was tested, and the IC50 (GATA5) was ~50 µM and 49.5 µM, the “Interference with the RelA-DNA interaction” value (RelA) was “without interfering” and the IC50 (GATA4) was ~50 µM and 48 µM. For the same molecule, the “GATA3-dependent transcriptional activation of the IL-5 promoter” value [1] was “significantly suppressed”, the IC50 (GATA3; AlphaScreen, pyrrothiogatain 0 to 200 µM) was ~50 µM and 54.7 µM and the “Inhibition of GATA3–DNA binding in the second screen” value (GATA3; second screen, 0 to 10 µM) was “specifically inhibited”.
